Test results published in patent publication US20210379046A1, “Methods of Treating Diseases Using Kinase Modulators” (Memorial Sloan Kettering Cancer Center, priority 2018, published 2021).
“Also recorded” adds a separate entry of the source.

Key:
SKOV3 cells = assay: Surface HLA on SKOV3 cells; format: cell-based, human
Protocol: (§1) If adherent cells, they were seeded one day before treatment.
Experiments in this Example were performed as described in Section 6.1.2.

Human T cells = assay: IFN-gamma ELISpot of peptide stimulated T cells; format: cell-based; details: T cells of HLA-A*02:01 positive healthy donors, autologous CD14+ cells presenting peptide
Excerpt: Peripheral blood mononuclear cells were again derived from healthy donors after receiving informed consent (see above). T cells were isolated by Ficoll density centrifugation and stimulated with pools of peptides that were selected from the population of: (1) new peptides that appeared after RET inhibitor treatment, (2) peptides found on cells before RET inhibitor treatment, and (3) irrelevant peptides not found on the target cells. CD14^+ cells were isolated from PBMCs by negative immunomagnetic cell separation using an isolation kit (Miltenyi Biotec). CD14 cells were used for stimulation in week one and autologous dendritic cells were generated for use thereafter. The purity of the cells was always more than 98%. Monocyte-derived dendritic cells (DCs) were generated from CD14+ cells, by culturing the cells in RPMI 1640 medium supplemented with 1% AP, 500 units/mL recombinant IL-4, and 1,000 units/mL GM-CSF. On days 2 and 4 of the incubation, fresh medium with IL-4 and GM-CSF was either added or replaced half of the culture medium. On day 6, maturation cytokine cocktail was added (IL-4, GM-CSF, 500 IU/mL IL-1, 1,000 IU/mL IL-6, 10 ng/ml TNF-α, and 1 ug/mL PGE-2).
An interferon-gamma ELISpot was performed at the beginning of week three. For this HA-Multiscreen plates (Millipore) were coated with 100 uL of mouse anti-human IFN-gamma antibody (10 ug/mL; clone 1-D1K, Mabtech #3420-2A) in PBS, incubated overnight at 4° C., washed with PBS to remove unbound antibody, and blocked with RPMI 1640/10% autologous plasma (AP) for 2 h at 37° C. Purified CD3^+ T cells (>98% pure) were plated with either autologous CD14^+ (10:1 E:APC ratio) or autologous DCs (30:1 E:APC ratio), Various test peptides were added to the wells at 20 ug/mL. Negative control wells contained. APCs and T cells without peptides or with irrelevant peptides. Positive control wells contained T cells plus APCs plus 20 ug/mL phytohemagglutinin (PHA, Sigma). All conditions were done in triplicates. Microtiter plates were incubated for 20 h at 37° C. and then extensively washed with PBS/0.05% Tween and 100 uL/well biotinylated detection antibody against human IFN-γ (2 ug/mL; clone 7-B6-1; Mabtech) was added. Plates were incubated for an additional 2 h at 37° C. and spot development was done as described. Spot numbers were read and determined by Zellnet Consulting In. T cell killing of target cells was measured at week five as described in the section of ADCC above.

Karpas 299 cells = assay: Flow cytometry of cell surface HLA and checkpoint ligands on Karpas 299 cells; format: cell-based, human; details: for cell surface HLA-A,B,C: Karpas 299, 72 hrs, increasing concentrations
Protocol: as §1

pERK in Karpas 299 cells = assay: Western blot of pERK in Karpas 299 cells; format: cell-based, human; details: Karpas 299, 3 hrs
Protocol: (§2) Cells were seeded in a 60 mm dish or 6 well plates. After the appropriate time point, cells were harvested and lysed and protein was quantified by a Lowry assay (Bio-Rad DC Protein Assay; #5000116). Protein levels were normalized and run on SDS PAGE gels (Bio-Rad). Protein was transferred to a nitrocellulose membrane using semi-dry transfer. Membrane was blocked and incubated with respective antibodies. When needed, secondary antibodies with HRP were incubated for 1 hr.
(§3) Cells were seeded in a 60 mm dish or 6 well plates. After the appropriate time point, cells were harvested, lysed in RIPA buffer (Thermo Instruments) and protein concentration was quantified by a Lowry assay (using the Bio-Rad DC Protein Assay; #5000116 on a Spectramax device from Molecular Devices). Protein loading levels were equalized per lane and separated on SDS gels (Bio-Rad). Protein was transferred to a nitrocellulose membrance using semi-dry transfer (BioRad). Membranes were blocked with Omniblock (American Bio) and incubated with respected antibodies. When needed, secondary antibodies with HRP were incubated for 1 hr.

pERK in SUDHL-1 cells = assay: Western blot of pERK in SUDHL-1 cells; format: cell-based, human; details: SUDHL-1, 3 hrs
Protocol: as §2, §3

pERK in H2228 cells = assay: Western blot of pERK in H2228 cells; format: cell-based, human; details: H2228, 100 nM
Protocol: as §2, §3

Karpas 299 tumors = assay: Karpas 299 subcutaneous tumors in mice, tumor HLA and PD-L1 by flow cytometry; format: in vivo; details: Karpas 299 tumors, daily oral gavage
Protocol: Female NSG (NOD.Cg-Prkdc^scidIl2rg^tm1Wj1/SzJ) and NRG (NOD.Cg-Rag1^tm1MomIl2rg^tm1Wj1/SzJ) mice were purchased from the Jackson Laboratory or MSKCC breeding facility at 5-10 weeks old. For RET and ALK experiments, 2.5-6×10^6 tumor cells were subcutaneously injected into the flank of mice and when tumors were palpable, mice were treated daily with drug or vehicles through oral gavage. At day 7, tumors were harvested and flow cytometry was run to determine effect of inhibitors on HLA and PD-L1 on the tumor cells.
The highly immunodeficient NRG (NOD-Rag1null IL2rgnull) mice were subcutaneously injected with 2.5×10^6 luciferase tagged TPC1 cells in their right flank. […] Afterwards, cells were immediately harvested and stained with antibodies against HLA-A*02:01 and HLA-ABC.
All animal experiments were conducted in accordance with and the approval of the MSKCC IACUC (Institutional Animal Care and Use Committee) protocols. Female NSG (NOD. Cg-Prkdc^scidIl2rg^tm1Wj1/SzJ) and NRG (NOD.Cg-Rag1^tm1MomIl2rg^tm1Wj1/SzJ) mice were purchased from the Jackson Laboratory at 5-10 weeks old. For experiments in vivo with RET and ALK, 2.5-6×10^6 tumor cells in PBS were subcutaneously injected into the flank of mice. When tumors were palpable (2-3 mm), mice were treated daily with drugs or vehicles through oral gavage of drugs in 200 ul of water. At day 4 or 7, tumors were harvested and flow cytometry was conducted to determine the effect of inhibitors on HLA and PD-L1 on the tumor cells. […] TPC1 cells were transduced with luciferase and GFP on an SFG vector and this allowed gating of the tumor cells in flow cytometry.

SUDHL-1 cells = assay: Flow cytometry of cell surface HLA on SUDHL-1 cells; format: cell-based, human; details: SUDHL-1, 72 hrs, increasing concentrations
Protocol: as §1

[1] = system: HLA-A, beta-2-microglobulin, TAP1, TAP2 in Karpas 299 and SUDHL-1 cells; assay: Western blot and qPCR of HLA and antigen processing machinery in ALCL lines; format: cell-based, human; details: for HLA and antigen processing machinery transcript levels (qPCR): Karpas 299 and SUDHL-1, 48 hrs
Protocol: as §2, §3
Data were normalized to baseline expression of each analyzed gene separately.

TPC1 cells = assay: ADCC chromium-51 release assay with ESK1 and human PBMCs on inhibitor-pretreated TPC1 cells; format: cell-based; details: TPC1 pretreated 72 hrs with 100 nM trametinib, at 3 or 4 E:T ratios
Protocol: Peripheral blood mononuclear cells were derived from healthy donors by Ficoll density centrifugation after receiving informed consent on Memorial Sloan Kettering Institutional Review board-approved protocols. TPC1 cells treated with RET inhibitor drugs and DMSO control were labeled with chromium-51 and co-cultured with PBMCs and ESK (or its isotype control, hIgG1). Different E:T ratios were used and after 5 hrs of incubation at 37° C., the supernatant was harvested and chromium levels were measured by Chromium-51 release assay (Perkin Elmer). Higher chromium levels indicated higher levels of cytotoxicity.
After the addition of ESK and peripheral blood mononuclear cells for 5 hrs, chromium release was measured.
For each experiment reported, fresh peripheral blood mononuclear cells were derived from a healthy donor by Ficoll density centrifugation after receiving informed consent on Memorial Sloan Kettering Institutional Review Board-approved protocols. […] Cells were then labeled with 1 uCi/well chromium-51 for 1 hr at 37° C. […] Different effector:target ratios were used and after 5 hrs of incubation at 37° C., the supernatant was harvested and chromium levels were measured through standard chromium-51 release assay on a Top Count machine (Perkin Elmer).

TT cells = assay: Flow cytometry of cell surface HLA on TT cells; format: cell-based, human; details: 72 hrs
Protocol: as §1

LC-2/ad cells = assay: Flow cytometry of cell surface HLA on LC-2/ad cells; format: cell-based, human; details: 72 hrs
Protocol: as §1

[2] = system: JAK signaling (pSTAT1) in Karpas299 and TPC1 cells; assay: IFN-γ stimulation and ruxolitinib control in Karpas299 and TPC1 cells; format: cell-based, human
Protocol: Cells were harvested and stained with anti-HLA-A02 antibody (BB7-FITC) for flow cytometry. […] (B) Karpas299 and TPC1 cells were treated with DMSO, IFN-γ, or IFN-γ and RUX for 72 hours.
Supernatant media were harvested after treatment and analyzed by the Luminex device (Luminex Corporation, Austin, Tex.) for relevant cytokine secretion. […] On the left side of each panel is data after 24 hours. On the right side of each panel is data after 48 hours. […] The data points shown in this figure are in pairs for each condition. The data point pairs for each time point are, from left to right: DMSO, Rux, Alec, IFNg, and IFNg+Rux.

[3] = system: Karpas 299 and SUDHL-1 cells; assay: Sensitivity of ALCL cells to ALK inhibitors; format: cell-based, human

CS(=O)(=O)CCNCc1ccc(-c2ccc3ncnc(Nc4ccc(OCc5cccc(F)c5)c(Cl)c4)c3c2)o1 [lapatinib]
HLA upregulation (SKOV3 cells): upregulated HLA

ILDKKVEKV (control peptide) [ILDKKVEKV (SEQ ID NO:7), control peptide found before drug treatment on TPC1 cells]
T cell mediated IFN gamma response (ELISpot) (Human T cells): No response

C[C@@H](Oc1cc(-c2cnn(C3CCNCC3)c2)cnc1N)c1c(Cl)ccc(F)c1Cl [crizotinib]
surface HLA-E levels (Karpas 299 cells; Karpas 299): did not change
HLA levels increase compared to control cells treated with DMSO (Karpas 299 cells; Karpas 299, 1 uM, 72 hour incubation): 4 fold
cell surface HLA-A,B,C (Karpas 299 cells): increased levels of surface HLA-A,B,C; also recorded: increased levels of surface HLA class I complexes; also recorded: increases in cell surface HLA
pERK levels (pERK in Karpas 299 cells): dose-related reduction of pERK at 3 hours; also recorded: dose-related, reduction of pERK at 3 hours
pERK levels (pERK in SUDHL-1 cells): inhibited pERK expression
pERK levels (pERK in H2228 cells): did not change pERK levels
pERK levels (pERK in H2228 cells; listed as Crizotinib): does not decrease pERK levels
tumor PD-L1 levels in vivo (Karpas 299 tumors): PD-L1 levels decreased with increasing doses; also recorded: PD-L1 levels decreased in vivo
tumor cell surface HLA-A,B,C in vivo (Karpas 299 tumors): increased slightly in a dose-response manner, though not all mice responded; also recorded: increased modestly in a dose-dependent manner
cell surface HLA-A,B,C (SUDHL-1 cells): increased surface HLA in a dose-related manner; also recorded: increases in cell surface HLA
HLA and antigen processing machinery transcript levels (qPCR) [1]: showed increases in HLA and antigen processing machinery transcript levels

CC(=O)Nc1cccc(-n2c(=O)n(C3CC3)c(=O)c3c(Nc4ccc(I)cc4F)n(C)c(=O)c(C)c32)c1 [trametinib]
improved lysis by ESK1 (TPC1 cells): about 10%

COc1cc2ncnc(Oc3cccc(NC(=O)Nc4cc(C(C)(C)C(F)(F)F)on4)c3)c2cc1OC [CEP-32496]
surface HLA (TT cells): minimal effects on HLA upregulation; also recorded: Small changes in cell surface HLA
surface HLA (LC-2/ad cells): minimal effects on HLA upregulation; also recorded: Small changes in cell surface HLA

GRKPPLLKK (irrelevant peptide) [GRKPPLLKK (SEQ ID NO:9), irrelevant peptide, negative control]
T cell mediated IFN gamma response (ELISpot) (Human T cells): No response

IFNγ: interferon gamma used as positive control
phosphorylated STAT1 (pSTAT1) ([2]; Karpas299 and TPC1, IFN-γ or IFN-γ and RUX, 72 hours): upregulated in both cell lines
IL4 and IL6 secretion ([2]; Karpas299 and TPC1, IFNγ 100 ng/ml, ruxolitinib 1000 nm): increased both IL4 and IL6

TYLEKAIKI (control peptide) [TYLEKAIKI (SEQ ID NO:6), control peptide found before drug treatment on TPC1 cells]
T cell mediated IFN gamma response (ELISpot) (Human T cells): No response

ILQAHLHSL (control peptide) [ILQAHLHSL (SEQ ID NO:8), control peptide found before drug treatment on TPC1 cells]
T cell mediated IFN gamma response (ELISpot) (Human T cells): No response

Cc1cc(Nc2ncc(Cl)c(Nc3ccccc3S(=O)(=O)C(C)C)n2)c(OC(C)C)cc1C1CCNCC1 [ceritinib]
cell surface HLA-A,B,C (Karpas 299 cells): cell surface HLA increased in both cell lines in a dose-dependent manner
pERK levels (pERK in Karpas 299 cells): shut down pERK levels
pERK levels (pERK in SUDHL-1 cells): shut down pERK levels
pERK levels (pERK in H2228 cells): slightly decreased pERK levels
pERK levels (pERK in H2228 cells; listed as Ceritinib): minimal changes in pERK levels; also recorded: decreased pERK levels very slightly
sensitivity of cells to ceritinib compared with crizotinib [3]: more sensitive to ceritinib than crizotinib, and died at lower concentrations
cell surface HLA-A,B,C (SUDHL-1 cells): cell surface HLA increased in both cell lines in a dose-dependent manner
HLA and antigen processing machinery transcript levels (qPCR) [1]: Increase in RNA levels of HLA and antigen processing machinery
HLA-A and beta-2-microglobulin protein levels (western blot) ([1]; Karpas 299 and SUDHL-1, 72 hrs): show increase in HLA-A and beta-2-microglobulin
